From paper PMC7156458, “Synthetic biology based construction of biological activity-related library of fungal decalin-containing diterpenoid pyrones” (Nature Communications, 2020)

Target: Aβ42 (Homo sapiens, UniProt P05067)
Experiment: Th-T (thioflavin-T) assay of Aβ42 aggregation
Assay type: biochemical
Conditions: for Th-T assay plate reading, mean of three wells (Supplementary Fig. 47): source data, Ab alone and No Ab as controls

Aβ42, sequence (P05067 672-713): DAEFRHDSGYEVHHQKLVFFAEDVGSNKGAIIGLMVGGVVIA

Compound: C=C1CCC2C(C)(CC(=O)C=C(C)C)C(O)CCC2(C)C1Cc1c(OC)oc(C)c(C)c1=O (centres unmarked) [Compound 25]
- Th-T fluorescence, mean of three wells (Aβ42 aggregation time course, reading M117): 3.606
- Th-T fluorescence, mean of three wells (Aβ42 aggregation time course, reading M118): 3.615
- Th-T fluorescence, mean of three wells (Aβ42 aggregation time course, reading M119): 3.596
- Th-T fluorescence, mean of three wells (Aβ42 aggregation time course, reading M120): 3.613
- Th-T fluorescence, mean of three wells (Aβ42 aggregation time course, reading M121): 3.583
- Th-T fluorescence, mean of three wells (Aβ42 aggregation time course, reading M122): 3.577
- Th-T fluorescence, mean of three wells (Aβ42 aggregation time course, reading M123): 3.546
- Th-T fluorescence, mean of three wells (Aβ42 aggregation time course, reading M124): 3.572
- Th-T fluorescence, mean of three wells (Aβ42 aggregation time course, reading M125): 3.555
- Th-T fluorescence, mean of three wells (Aβ42 aggregation time course, reading M126): 3.529
- Th-T fluorescence, mean of three wells (Aβ42 aggregation time course, reading M127): 3.54
- Th-T fluorescence, mean of three wells (Aβ42 aggregation time course, reading M128): 3.504
- Th-T fluorescence, mean of three wells (Aβ42 aggregation time course, reading M129): 3.564
- Th-T fluorescence, mean of three wells (Aβ42 aggregation time course, reading M130): 3.54
- Th-T fluorescence, mean of three wells (Aβ42 aggregation time course, reading M131): 3.5322
- Th-T fluorescence, mean of three wells (Aβ42 aggregation time course, reading M132): 3.554
- Th-T fluorescence, mean of three wells (Aβ42 aggregation time course, reading M133): 3.505
- Th-T fluorescence, mean of three wells (Aβ42 aggregation time course, reading M134): 3.525
- Th-T fluorescence, mean of three wells (Aβ42 aggregation time course, reading M135): 3.538
- Th-T fluorescence, mean of three wells (Aβ42 aggregation time course, reading M136): 3.5303
- Th-T fluorescence, mean of three wells (Supplementary Fig. 47, reading M137): 3.5763
- Th-T fluorescence, mean of three wells (Supplementary Fig. 47, reading M138): 3.512
- Th-T fluorescence, mean of three wells (Supplementary Fig. 47, reading M139): 3.524
- Th-T fluorescence, mean of three wells (Supplementary Fig. 47, reading M140): 3.521
- Th-T fluorescence, mean of three wells (Supplementary Fig. 47, reading M141): 3.497
- Th-T fluorescence, mean of three wells (Supplementary Fig. 47, reading M142): 3.5241
- Th-T fluorescence, mean of three wells (Supplementary Fig. 47, reading M143): 3.477
- Th-T fluorescence, mean of three wells (Supplementary Fig. 47, reading M144): 3.474
- Th-T fluorescence, mean of three wells (Supplementary Fig. 47, reading M145): 3.514
- Th-T fluorescence, mean of three wells (Supplementary Fig. 47 source data, measurement M37 of time course): 3.725
- Th-T fluorescence, mean of three wells (Supplementary Fig. 47 source data, measurement M38 of time course): 3.672
- Th-T fluorescence, mean of three wells (Supplementary Fig. 47 source data, measurement M39 of time course): 3.686
- Th-T fluorescence, mean of three wells (Supplementary Fig. 47 source data, measurement M40 of time course): 3.696
- Th-T fluorescence, mean of three wells (Supplementary Fig. 47 source data, measurement M41 of time course): 3.723
- Th-T fluorescence, mean of three wells (Supplementary Fig. 47 source data, measurement M42 of time course): 3.705
- Th-T fluorescence, mean of three wells (Supplementary Fig. 47 source data, measurement M43 of time course): 3.698
- Th-T fluorescence, mean of three wells (Supplementary Fig. 47 source data, measurement M44 of time course): 3.759
- Th-T fluorescence, mean of three wells (Supplementary Fig. 47 source data, measurement M45 of time course): 3.771
- Th-T fluorescence, mean of three wells (Supplementary Fig. 47 source data, measurement M46 of time course): 3.76
- Th-T fluorescence, mean of three wells (Supplementary Fig. 47 source data, measurement M47 of time course): 3.73
- Th-T fluorescence, mean of three wells (Supplementary Fig. 47 source data, measurement M48 of time course): 3.764
- Th-T fluorescence, mean of three wells (Supplementary Fig. 47 source data, measurement M49 of time course): 3.767
- Th-T fluorescence, mean of three wells (Supplementary Fig. 47 source data, measurement M50 of time course): 3.788
- Th-T fluorescence, mean of three wells (Supplementary Fig. 47 source data, measurement M51 of time course): 3.755
- Th-T fluorescence, mean of three wells (Supplementary Fig. 47 source data, measurement M52 of time course): 3.752
- Th-T fluorescence, mean of three wells (Supplementary Fig. 47 source data, measurement M53 of time course): 3.724
- Th-T fluorescence, mean of three wells (Supplementary Fig. 47 source data, measurement M54 of time course): 3.756
- Th-T fluorescence, mean of three wells (Supplementary Fig. 47 source data, measurement M55 of time course): 3.771
- Th-T fluorescence, mean of three wells (Supplementary Fig. 47 source data, measurement M56 of time course): 3.762
- Th-T assay plate reading, mean of three wells (Supplementary Fig. 47) (measurement M1): 0.2149
- Th-T assay plate reading, mean of three wells (Supplementary Fig. 47) (measurement M2): 0.2276
- Th-T assay plate reading, mean of three wells (Supplementary Fig. 47) (measurement M3): 0.2865
- Th-T assay plate reading, mean of three wells (Supplementary Fig. 47) (measurement M4): 0.3444
- Th-T assay plate reading, mean of three wells (Supplementary Fig. 47) (measurement M5): 0.4109
- Th-T assay plate reading, mean of three wells (Supplementary Fig. 47) (measurement M6): 0.436
- Th-T assay plate reading, mean of three wells (Supplementary Fig. 47) (measurement M7): 0.4804
- Th-T assay plate reading, mean of three wells (Supplementary Fig. 47) (measurement M8): 0.5318
- Th-T assay plate reading, mean of three wells (Supplementary Fig. 47) (measurement M9): 0.5868
- Th-T assay plate reading, mean of three wells (Supplementary Fig. 47) (measurement M10): 0.6365
- Th-T assay plate reading, mean of three wells (Supplementary Fig. 47) (measurement M11): 0.7058
- Th-T assay plate reading, mean of three wells (Supplementary Fig. 47) (measurement M12): 0.8261
- Th-T assay plate reading, mean of three wells (Supplementary Fig. 47) (measurement M13): 1.145
- Th-T assay plate reading, mean of three wells (Supplementary Fig. 47) (measurement M14): 1.723
- Th-T assay plate reading, mean of three wells (Supplementary Fig. 47) (measurement M15): 2.352
- Th-T assay plate reading, mean of three wells (Supplementary Fig. 47) (measurement M16): 2.814
- Th-T fluorescence, mean of three wells (reading M17, Supplementary Fig. 47 source data): 3.101
- Th-T fluorescence, mean of three wells (reading M18, Supplementary Fig. 47 source data): 3.246
- Th-T fluorescence, mean of three wells (reading M19, Supplementary Fig. 47 source data): 3.285
- Th-T fluorescence, mean of three wells (reading M20, Supplementary Fig. 47 source data): 3.357
- Th-T fluorescence, mean of three wells (reading M21, Supplementary Fig. 47 source data): 3.385
- Th-T fluorescence, mean of three wells (reading M22, Supplementary Fig. 47 source data): 3.422
- Th-T fluorescence, mean of three wells (reading M23, Supplementary Fig. 47 source data): 3.453
- Th-T fluorescence, mean of three wells (reading M24, Supplementary Fig. 47 source data): 3.499
- Th-T fluorescence, mean of three wells (reading M25, Supplementary Fig. 47 source data): 3.518
- Th-T fluorescence, mean of three wells (reading M26, Supplementary Fig. 47 source data): 3.525
- Th-T fluorescence, mean of three wells (reading M27, Supplementary Fig. 47 source data): 3.564
- Th-T fluorescence, mean of three wells (reading M28, Supplementary Fig. 47 source data): 3.572
- Th-T fluorescence, mean of three wells (reading M29, Supplementary Fig. 47 source data): 3.591
- Th-T fluorescence, mean of three wells (reading M30, Supplementary Fig. 47 source data): 3.63
- Th-T fluorescence, mean of three wells (reading M31, Supplementary Fig. 47 source data): 3.6544
- Th-T fluorescence, mean of three wells (reading M32, Supplementary Fig. 47 source data): 3.711
- Th-T fluorescence, mean of three wells (reading M33, Supplementary Fig. 47 source data): 3.704
- Th-T fluorescence, mean of three wells (reading M34, Supplementary Fig. 47 source data): 3.671
- Th-T fluorescence, mean of three wells (reading M35, Supplementary Fig. 47 source data): 3.708
- Th-T fluorescence, mean of three wells (reading M36, Supplementary Fig. 47 source data): 3.706
- Th-T fluorescence, mean of three wells (time course, reading M57): 3.709
- Th-T fluorescence, mean of three wells (time course, reading M58): 3.763
- Th-T fluorescence, mean of three wells (time course, reading M59): 3.775
- Th-T fluorescence, mean of three wells (time course, reading M60): 3.734
- Th-T fluorescence, mean of three wells (time course, reading M61): 3.716
- Th-T fluorescence, mean of three wells (time course, reading M62): 3.783
- Th-T fluorescence, mean of three wells (time course, reading M63): 3.7203
- Th-T fluorescence, mean of three wells (time course, reading M64): 3.6972
- Th-T fluorescence, mean of three wells (time course, reading M65): 3.735
- Th-T fluorescence, mean of three wells (time course, reading M66): 3.755
- Th-T fluorescence, mean of three wells (time course, reading M67): 3.725
- Th-T fluorescence, mean of three wells (time-course reading M97, Supplementary Fig. 47 source data): 3.595
- Th-T fluorescence, mean of three wells (time-course reading M98, Supplementary Fig. 47 source data): 3.647
- Th-T fluorescence, mean of three wells (time-course reading M99, Supplementary Fig. 47 source data): 3.679
- Th-T fluorescence, mean of three wells (time-course reading M100, Supplementary Fig. 47 source data): 3.653
- Th-T fluorescence, mean of three wells (time-course reading M101, Supplementary Fig. 47 source data): 3.662
- Th-T fluorescence, mean of three wells (time-course reading M102, Supplementary Fig. 47 source data): 3.581
- Th-T fluorescence, mean of three wells (time-course reading M103, Supplementary Fig. 47 source data): 3.611
- Th-T fluorescence, mean of three wells (time-course reading M104, Supplementary Fig. 47 source data): 3.626
- Th-T fluorescence, mean of three wells (time-course reading M105, Supplementary Fig. 47 source data): 3.605
- Th-T fluorescence, mean of three wells (time-course reading M106, Supplementary Fig. 47 source data): 3.616
- Th-T fluorescence, mean of three wells (time-course reading M107, Supplementary Fig. 47 source data): 3.656
- Th-T fluorescence, mean of three wells (time-course reading M108, Supplementary Fig. 47 source data): 3.6
- Th-T fluorescence, mean of three wells (time-course reading M109, Supplementary Fig. 47 source data): 3.632
- Th-T fluorescence, mean of three wells (time-course reading M110, Supplementary Fig. 47 source data): 3.606
- Th-T fluorescence, mean of three wells (time-course reading M111, Supplementary Fig. 47 source data): 3.628
- Th-T fluorescence, mean of three wells (time-course reading M112, Supplementary Fig. 47 source data): 3.629
- Th-T fluorescence, mean of three wells (time-course reading M113, Supplementary Fig. 47 source data): 3.58
- Th-T fluorescence, mean of three wells (time-course reading M114, Supplementary Fig. 47 source data): 3.62
- Th-T fluorescence, mean of three wells (time-course reading M115, Supplementary Fig. 47 source data): 3.596
- Th-T fluorescence, mean of three wells (time-course reading M116, Supplementary Fig. 47 source data): 3.5953
